According to patent US6706664B1, “Benzoxazole compounds, process for the preparation thereof and herbicides” (UBE Industries, Ltd., priority 1999, dated 2004):

Assays:
Design in all cases: key: 0: normal development; 1: Less damaged; 2: Slightly damaged; 3: Moderately damaged; 4: Severely damaged; 5: All killed
cotton = assay: Soil treatment test for upland field; assay type: in vivo; conditions: 500 g/ha, glass house 25° C., 3 weeks
Procedure, shortened: (§1)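 Pre-emergence: seeds sown in Ube alluvial soil in pots, then soil surface sprayed with wettable-powder formulation diluted in water with 0.05% surfactant at 500 g/ha. Plants kept in glasshouse at average 25° C for 3 weeks; injury scored 0 (normal) to 5 (all killed).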

wheat [1] = assay: Soil treatment test for upland field; assay type: in vivo; conditions: 500 g/ha, glass house 25° C., 3 weeks
Procedure, shortened: as §1

corn [2] = assay: Soil treatment test for upland field; assay type: in vivo; conditions: 500 g/ha, glass house 25° C., 3 weeks
Procedure, shortened: as §1

velvetleaf [3] = assay: Soil treatment test for upland field; assay type: in vivo, Abutilon theophrasti; conditions: 500 g/ha, glass house 25° C., 3 weeks
Procedure, shortened: as §1

common lambsquartes [4] = assay: Foliar spread test for upland field; assay type: in vivo, Chenopodium album; conditions: foliar spray 500 ppm, 3 weeks, rank vs non-treated
Procedure, shortened: (§2)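 Seeds are planted in pots of volcanic ash soil and grown roughly 2 weeks under glass. Foliage then receives a uniform spray of compound at 500 ppm in water with 0.5% surfactant. Herbicidal damage is rated 0–5 after 3 weeks at an average 25° C.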

barnyardgrass [5] = assay: Soil treatment test for upland field; assay type: in vivo, Echinochloa crusgalli; conditions: 500 g/ha, glass house 25° C., 3 weeks
Procedure, shortened: as §1

barnyardgrass [6] = assay: Herbicidal test for paddy field; assay type: in vivo, Echinochloa crusgalli; conditions: paddy field pot, 500 g/ha dropwise at 1.5 leaf stage of barnyardgrass, 3 weeks, rank vs non-treated
Procedure, shortened: (§3)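 Post-flooding water application of 500 g/ha, given at 1.5-leaf barnyardgrass, to plants in Ube alluvial soil held under 3 cm of water. Ratings of 0 to 5 relative to untreated controls were made after three weeks in a glasshouse.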

young rice plant = assay: Herbicidal test for paddy field; assay type: in vivo; conditions: paddy field pot, 500 g/ha dropwise at 1.5 leaf stage of barnyardgrass, 3 weeks, rank vs non-treated
Procedure, shortened: as §3

green foxtail = assay: Soil treatment test for upland field; assay type: in vivo, Setaria viridis; conditions: 500 g/ha, glass house 25° C., 3 weeks
Procedure, shortened: as §1

blackgrass = assay: Foliar spread test for upland field; assay type: in vivo, Alopecurus aegualis; conditions: foliar spray 500 ppm, 3 weeks, rank vs non-treated
Procedure, shortened: as §2

solgum = assay: Foliar spread test for upland field; assay type: in vivo; conditions: foliar spray 500 ppm, 3 weeks, rank vs non-treated
Procedure, shortened: (§4)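 Post-emergence foliar spray, 500 ppm (wettable powder in water + 0.5% surfactant), on ~2-week-old plants grown in volcanic ash soil; glasshouse, avg 25° C, 3 wk; visual damage score 0–5.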

wheat [7] = assay: Foliar spread test for upland field; assay type: in vivo; conditions: foliar spray 500 ppm, 3 weeks, rank vs non-treated
Procedure, shortened: as §4

sugar beat = assay: Foliar spread test for upland field; assay type: in vivo; conditions: foliar spray 500 ppm, 3 weeks, rank vs non-treated
Procedure, shortened: as §4

corn [8] = assay: Foliar spread test for upland field; assay type: in vivo; conditions: foliar spray 500 ppm, 3 weeks, rank vs non-treated
Procedure, shortened: as §4

common lambsquartes [9] = assay: Soil treatment test for upland field; assay type: in vivo, Chenopodium album; conditions: 500 g/ha, glass house 25° C., 3 weeks
Procedure, shortened: as §1

livid amaranth [10] = assay: Foliar spread test for upland field; assay type: in vivo, Amaranthus lividus; conditions: foliar spray 500 ppm, 3 weeks, rank vs non-treated
Procedure, shortened: as §2

monochoria = assay: Herbicidal test for paddy field; assay type: in vivo, Monochoria vaginalis; conditions: paddy field pot, 500 g/ha dropwise at 1.5 leaf stage of barnyardgrass, 3 weeks, rank vs non-treated
Procedure, shortened: as §3

livid amaranth [11] = assay: Soil treatment test for upland field; assay type: in vivo, Amaranthus lividus; conditions: 500 g/ha, glass house 25° C., 3 weeks
Procedure, shortened: as §1

velvetleaf [12] = assay: Foliar spread test for upland field; assay type: in vivo, Abutilon theophrasti; conditions: foliar spray 500 ppm, 3 weeks, rank vs non-treated
Procedure, shortened: as §2

CCC(Oc1cccc(OC(F)(F)F)c1)c1nc2cc([N+](=O)[O-])ccc2o1 (centres unmarked) [Compound 450]
2: Effects Cotton (cotton) | Effects Corn (corn [2]) | Effects Wheat (wheat [7])
5: Effects Velvetleaf (velvetleaf [3]) | Effects Barnyardgrass (barnyardgrass [5]) | Effects Green foxtail (green foxtail) | Effects Sugar beat (sugar beat) | Effect Monochoria (monochoria) | Effects Livid amaranth (livid amaranth [11])
1: Effects Wheat (wheat [1]) | Effect Young rice plant (young rice plant)
4: Effects Common lambsquarters (common lambsquartes [4]) | Effect Barnyardgrass (barnyardgrass [6]) | Effects Common lambsquarters (common lambsquartes [9]) | Effects Livid amaranth (livid amaranth [10])
3: Effects Blackgrass (blackgrass) | Effects Solgum (solgum) | Effects Corn (corn [8]) | Effects Velvetleaf (velvetleaf [12])

CCCC(Oc1ccc(F)c(C(F)(F)F)c1)c1nc2cc(C#N)c(Cl)cc2o1 (centres unmarked) [Compound 533]
4: Effects Common lambsquarters (common lambsquartes [4]) | Effect Monochoria (monochoria)
3: Effects Barnyardgrass (barnyardgrass [5]) | Effects Blackgrass (blackgrass)
0: Effects Cotton (cotton) | Effects Corn (corn [2])
1: Effects Wheat (wheat [1])
5: Effects Velvetleaf (velvetleaf [3]) | Effect Barnyardgrass (barnyardgrass [6]) | Effects Green foxtail (green foxtail) | Effects Sugar beat (sugar beat) | Effects Common lambsquarters (common lambsquartes [9]) | Effects Livid amaranth (livid amaranth [10]) | Effects Livid amaranth (livid amaranth [11])
2: Effect Young rice plant (young rice plant) | Effects Solgum (solgum) | Effects Wheat (wheat [7]) | Effects Corn (corn [8]) | Effects Velvetleaf (velvetleaf [12])
